Assay results from patent publication US9018173B2, “Materials and methods for suppressing inflammatory and neuropathic pain” (Indiana University Research and Technology Corp., priority 2010, dated 2015).
Residues, ends and D or L forms follow the SMILES beside them.

Assays:
[1] = system: capsaicin-evoked nocifensive behavior; assay: Capsaicin eye-wipe test; format: in vivo, rat; conditions: peptide alone
Procedure: Referring now to FIG. 16. TAT-CBD3 reduces acute, inflammatory and neuropathic pain. (FIG. 16A) Time course of number of flinches following subcutaneous (dorsal surface of paw) injection of formalin (2.5%; 50 μl saline) in animals pretreated with peptides (3-100 μM; 20 μl dorsal surface of paw) 30 min before formalin (n=4-10). (FIG. 16B) The effect of peptides on number of flinches on formalin-induced phase 1 (0-10 min) and phase 2 (15-60 min). *, p<0.05 versus formalin-injected animals. (FIG. 16C) Formalin induces paw edema. Paw thickness was measured 1 h after injection of saline, formalin, and formalin+peptides (100 μM). *, p<0.05 versus saline-injected animals. (FIG. 16D) Pretreatment with TAT-CBD3 attenuates capsaicin-evoked nocifensive behavior. […]
Eye-wipe test. […] TAT CBD3 peptide, TAT control peptide or vehicle was pipetted directly into the right eye in a volume of 40 μl and the resulting nocifensive behavior was measured. […] This nocifensive behavior was recorded for five minutes and followed by capsaicin (3 μM in 40 μl saline) application into the pretreated eye. Nocifensive behavior was again quantified for 5 minutes following capsaicin application, as described previously. […] Significant differences between groups were assessed by two-way analysis of variance with Bonferroni post-tests. Data were analyzed with GraphPad Prism 4.0 (GraphPad, San Diego, Calif., USA). […]

CaV2.2 = biological target: T1, CaV2.2 (Rattus norvegicus, UniProt Q02294); assay: Peptide spot array far-Western: CaV2.2 binding to 15-mer CRMP-2 peptides; conditions: 15-mer peptide #96 overlaid with spinal cord lysates / rat brain synaptosomes
T1 construct: incubated with a purified synaptosome fraction enriched in Ca^2+ channels; from tissue; host or cells: P1 neonatal rat brain synaptosomes, enriched on WGA-Sepharose and heparin-agarose
Procedure: Purification/Enrichment of Ca^2+ channels from synaptosomes. In order to prepare a rich source of CaV2.2 for the far-Western analyses (see below), synaptosomes from P1 neonatal rat brains were solubilized with digitonin and enriched by chromatography on WGA-Sepharose as described previously. Briefly, 30 PN1 neonatal rat brains were homogenized in 180 ml of 320 mM sucrose with a glass-Teflon homogenizer. After a short centrifugation (5000 rpm, 2 min), the supernatant (SN) was centrifuged (42,000 rpm, 60 min). The membranes were solubilized with 1.2% digitonin, 80 mM sodium phosphate buffer, pH 7.4 for 20 min. Unsolubilized material was removed by the centrifugation as before, and the supernatant (S3) was poured over a 40 ml WGA-Sepharose column (50 ml/h). After incubation for 1 hr at 4° C., the column was washed with 10 column volumes of 0.1% digitonin, 75 mM NaCl, 50 mM sodium phosphate, 10 mM Tris-HCl (pH 7.4) at a flow rate of 50 ml/hr. The glycoproteins bound to the WGA-Sepharose column were eluted with 100 mM N-acetyl-D-glucosamine (Sigma, St. Louis, Mo.) in the same buffer at a flow rate of 50 ml/hr. Three milliliter fractions were collected and the protein concentration of each fraction was determined by BCA protein assay kit (Thermo Fisher Scientific, Shelbyville, Ind.). […]

T1 sequence (Q02294 whole entry): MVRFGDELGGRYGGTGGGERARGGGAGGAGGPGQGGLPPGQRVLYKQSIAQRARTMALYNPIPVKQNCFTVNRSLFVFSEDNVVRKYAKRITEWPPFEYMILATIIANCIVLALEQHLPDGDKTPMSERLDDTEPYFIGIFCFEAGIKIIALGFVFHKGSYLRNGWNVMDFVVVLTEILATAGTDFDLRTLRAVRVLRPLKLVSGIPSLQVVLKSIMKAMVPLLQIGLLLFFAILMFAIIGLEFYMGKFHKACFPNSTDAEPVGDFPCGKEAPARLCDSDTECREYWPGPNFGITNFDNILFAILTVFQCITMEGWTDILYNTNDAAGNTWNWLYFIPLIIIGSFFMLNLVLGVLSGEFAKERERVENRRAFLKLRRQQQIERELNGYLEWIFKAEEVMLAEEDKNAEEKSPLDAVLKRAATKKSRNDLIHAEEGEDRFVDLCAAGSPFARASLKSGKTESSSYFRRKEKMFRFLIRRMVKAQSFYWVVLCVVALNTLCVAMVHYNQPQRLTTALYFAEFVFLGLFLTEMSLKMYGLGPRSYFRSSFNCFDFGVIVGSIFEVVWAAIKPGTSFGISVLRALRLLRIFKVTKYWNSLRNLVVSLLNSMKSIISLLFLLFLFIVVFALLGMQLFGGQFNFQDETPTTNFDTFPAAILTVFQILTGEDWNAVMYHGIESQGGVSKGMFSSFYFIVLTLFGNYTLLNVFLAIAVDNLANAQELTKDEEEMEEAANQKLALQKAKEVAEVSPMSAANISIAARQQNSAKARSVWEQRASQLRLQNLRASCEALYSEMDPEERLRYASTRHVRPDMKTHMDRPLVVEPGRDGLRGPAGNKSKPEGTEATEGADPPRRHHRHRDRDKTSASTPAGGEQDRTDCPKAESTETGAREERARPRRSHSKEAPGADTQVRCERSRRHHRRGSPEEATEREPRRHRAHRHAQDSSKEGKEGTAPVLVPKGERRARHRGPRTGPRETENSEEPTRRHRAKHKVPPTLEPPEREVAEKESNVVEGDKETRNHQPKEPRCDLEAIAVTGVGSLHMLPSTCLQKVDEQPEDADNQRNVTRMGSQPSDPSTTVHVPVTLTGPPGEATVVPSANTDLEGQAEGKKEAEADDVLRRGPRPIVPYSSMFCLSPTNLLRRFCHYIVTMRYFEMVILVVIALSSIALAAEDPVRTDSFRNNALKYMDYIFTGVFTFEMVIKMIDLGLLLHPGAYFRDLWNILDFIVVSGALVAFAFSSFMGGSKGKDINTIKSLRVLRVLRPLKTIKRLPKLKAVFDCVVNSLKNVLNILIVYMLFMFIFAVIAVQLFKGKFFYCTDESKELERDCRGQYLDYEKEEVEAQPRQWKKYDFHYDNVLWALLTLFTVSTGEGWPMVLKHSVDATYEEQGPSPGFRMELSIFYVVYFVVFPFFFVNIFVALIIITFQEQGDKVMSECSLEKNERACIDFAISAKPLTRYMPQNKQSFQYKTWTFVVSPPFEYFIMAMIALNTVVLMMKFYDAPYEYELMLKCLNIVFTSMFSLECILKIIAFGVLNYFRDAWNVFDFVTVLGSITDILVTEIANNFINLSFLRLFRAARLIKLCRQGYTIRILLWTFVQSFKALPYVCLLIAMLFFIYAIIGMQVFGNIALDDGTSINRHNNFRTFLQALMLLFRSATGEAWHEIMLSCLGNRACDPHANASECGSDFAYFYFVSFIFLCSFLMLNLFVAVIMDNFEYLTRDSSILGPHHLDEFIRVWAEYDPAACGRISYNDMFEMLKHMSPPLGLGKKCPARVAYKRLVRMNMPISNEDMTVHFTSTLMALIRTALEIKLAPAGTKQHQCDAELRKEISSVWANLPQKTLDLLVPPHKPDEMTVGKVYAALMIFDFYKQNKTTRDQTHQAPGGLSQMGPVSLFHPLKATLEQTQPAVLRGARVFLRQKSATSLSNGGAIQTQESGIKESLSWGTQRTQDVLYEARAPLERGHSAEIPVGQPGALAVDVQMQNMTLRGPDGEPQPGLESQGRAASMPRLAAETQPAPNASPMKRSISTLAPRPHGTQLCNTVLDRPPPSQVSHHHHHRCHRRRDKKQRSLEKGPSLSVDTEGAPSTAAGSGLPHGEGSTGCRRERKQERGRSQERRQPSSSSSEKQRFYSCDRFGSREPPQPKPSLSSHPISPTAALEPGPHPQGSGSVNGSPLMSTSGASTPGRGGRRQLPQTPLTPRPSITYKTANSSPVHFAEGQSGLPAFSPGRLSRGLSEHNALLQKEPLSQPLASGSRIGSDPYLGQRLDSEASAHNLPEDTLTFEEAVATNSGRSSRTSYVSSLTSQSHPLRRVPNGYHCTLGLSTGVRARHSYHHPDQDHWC

Compound | nocifensive behavior on application alone to the cornea [1] | binding to CaV2.2 (CaV2.2)
CC(C)C[C@H](NC(=O)CNC(=O)[C@H](CCCNC(=N)N)NC(=O)[C@@H]1CCCN1C(=O)[C@@H](NC(=O)CNC(=O)[C@H](CCCNC(=N)N)NC(=O)[C@H](CC(C)C)NC(=O)[C@H](CCC(=O)O)NC(=O)[C@H](C)NC(=O)[C@H](CC(C)C)NC(=O)[C@H](CCCNC(=N)N)NC(=O)[C@H](CO)NC(=O)[C@H](CCCNC(=N)N)NC(=O)[C@H](C)NC(=O)[C@H](CCCNC(=N)N)NC(=O)[C@H](CCCNC(=N)N)NC(=O)[C@H](CCCNC(=N)N)NC(=O)[C@H](CCC(N)=O)NC(=O)[C@H](CCCNC(=N)N)NC(=O)[C@H](CCCNC(=N)N)NC(=O)[C@H](CCCCN)NC(=O)[C@H](CCCCN)NC(=O)[C@H](CCCNC(=N)N)NC(=O)CNC(=O)[C@@H](N)Cc1ccc(O)cc1)C(C)C)C(=O)O [TAT-CBD3] (H-YGRKKRRQRRRARSRLAELRGVPRGL-OH; N-terminus and C-terminus assumed) | did not induce nocifensive behavior | 
ARSRLAELRGVPRGL (CBD3) |  | bound to the CaV2.2
